This test has as its system CEM cells HIV-1 protection, formazan growth assay. Put plainly: NCI AIDS Antiviral Assay. The conditions noted are these: for IC50: measured here: growth of uninfected CEM cells. A digest of the protocol:
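Category rules: moderately active means at least 50% protection on retest, and confirmed active means 100% protection reproducibly. The underlying data came from a formazan growth assay in HIV-1-infected CEM cells.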

Where “and” joins values, the source holds several entries; their conditions need not be identical. Equal values may be shown once. Calls of active or inactive are those of the source.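 The calls were made as follows: active = compounds giving half or more protection of infected cells from virus-caused growth loss, again on retest; inactive = the rest.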 Where only a bound is given, the exact number is not on record here.

EC50, IC50 and outcome data for 73 compounds are collected here from PubChem BioAssay AID179 (DTP/NCI, 2004).

With `CCP(=S)(CC)CCl`, the EC50 (as a rule, the concentration that produces a half-maximal response) was greater than 200 µM and the IC50 (usually the concentration that gives 50% inhibition) was greater than 200 µM.

In the case of `CN(C)c1ccc(C=NCC2CCCN3CCCCC23)cc1` (centres undefined), the EC50 is greater than 100 µM and the half-inhibitory concentration (IC50) was greater than 100 µM.

`CC(=O)c1c(-c2cccc3ccccc23)c(C#N)c(=S)n(C2OC(CO)C(O)C(O)C2O)c1C` (centres undefined): the EC50 was greater than 200 µM; the IC50 is 132 µM and 53.7 µM.

As for `O=S(=O)(O)c1cc(N=Nc2ccc(O)c3ncccc23)ccc1/C=C/c1ccc(N=Nc2ccc(O)c3ncccc23)cc1S(=O)(=O)O`, the EC50 is greater than 105 µM and the IC50 is greater than 105 µM.

As to `Nc1c(S(=O)(=O)O)cc2cc(S(=O)(=O)O)ccc2c1N=Nc1ccc(S(=O)(=O)c2ccc(N=Nc3c(N)c(S(=O)(=O)O)cc4cc(S(=O)(=O)O)ccc34)cc2)cc1`, the EC50 is greater than 64.6 µM and the IC50 was greater than 64.6 µM.

`O=C(NC(CO)Cc1ccc(Oc2cc(CC(CO)NC(=O)OCc3ccccc3)ccc2OC(=O)OCc2ccccc2)cc1)OCc1ccccc1` (centres undefined): the EC50 was greater than 200 µM and the 50% inhibitory concentration (IC50) amounted to 20.9 µM.

For the compound `COc1ccc2c(c1)C(=O)N1CSCC1C(=O)S2` (centres undefined), the EC50 is greater than 200 µM and the IC50 is greater than 200 µM.

As for `COc1cc2ccc(=O)oc2c2c1OC(C)(C)[C@H](OC(=O)C13CCC(C)(C(=O)O1)C3(C)C)[C@@H]2OC(=O)C12CCC(C)(C(=O)O1)C2(C)C` (some centres undefined), the EC50 was greater than 200 µM and the IC50 was greater than 200 µM.

With `CC(=O)c1cc2c3c(c1)C(=O)CCN3CCC2=O`, the result was inactive.

Consider `O=[N+]([O-])c1ccc2c(c1)NP(=S)(Oc1ccccc1)N2` (centres undefined), for which the EC50 was greater than 603 µM and the 50% inhibitory concentration (IC50) was found to be 81.3 µM.

`O=C1/C(=C\c2cccc(Oc3ccccc3)c2)SC(c2ccccc2)N1c1ccccc1Cl` (centres undefined): the EC50 is greater than 20 µM.

`NS(=O)(=O)c1nnc(/N=C(/CCC(=O)O)C(=O)O)s1`: the EC50 is greater than 200 µM and the IC50 was greater than 200 µM.

For `CCOC(=O)C(Cl)(NC(=O)c1c(F)c(F)c(F)c(F)c1F)C(F)(F)F` (centres undefined), the outcome was inactive.

Regarding `CN1CCOC1(C)CO` (centres undefined), the EC50 was greater than 200 µM and the IC50 is greater than 200 µM.

`Cc1nc2c(nc1C)C(=O)C(Cl)=C(N)C2=O`: the result was inactive.

On to `CN(C)CC1CCC/C(=C\c2ccc(OC(=O)/C=C/c3ccc(Cl)cc3)cc2)C1=O` (centres undefined), for which the EC50 was greater than 50.1 µM and the IC50 was found to be 2.19 µM.

Turning to `COc1ccc(CC2=NCCc3cc(OC)c(OC)cc32)cc1Br`, the EC50 was greater than 240 µM and the IC50 was 3.47 µM.

For the compound `N#Cc1c2nc3ccccc3nc2n2ccc3ccccc3c12`, the EC50 was greater than 200 µM and the concentration for half-maximal inhibition (IC50) is greater than 200 µM.

Regarding `COC1CC(OC)C(O)C(CO)O1` (centres undefined), the result was inactive.

As to `CCN(CC)C1=Nc2ccccc2-n2ccnc2C1`, the outcome was inactive.

Turning to `Cc1cccc(NC(=S)Nc2ccccc2Cl)n1`, the EC50 was 141 µM and the IC50 was greater than 200 µM.

As to `CCO/C=C1\N=C(c2ccc(Cl)c(Cl)c2)OC1=O`, the EC50 is greater than 126 µM and the 50% inhibitory concentration (IC50) was greater than 126 µM.

Take `Cc1sc(N)c(S(=O)(=O)c2ccccc2)c1C`: the concentration for a half-maximal effect (EC50) is 166 µM and the concentration for half-maximal inhibition (IC50) was found to be 195 µM.

In the case of `O=C(O)C(=Cc1ccc(-c2ccc([N+](=O)[O-])cc2)o1)C(=O)O`, the EC50 is greater than 200 µM and the half-inhibitory concentration (IC50) is greater than 200 µM.

For the compound `COCC(/C=N/N=C(N)N)=N\N=C(N)N`, the EC50 is greater than 32.4 µM and the IC50 was greater than 32.4 µM.

With `Cc1ccc(NC(=O)/C(=N/NC(=O)C[N+](C)(C)C)c2nc3ccccc3[nH]c2=O)cc1`, the EC50 is greater than 186 µM and the concentration for half-maximal inhibition (IC50) was determined as 120 µM.

Turning to `NC1(N2SC(S)=C3CCCC=C32)CCCCC1`, the EC50 was 42.7 µM and the IC50 was greater than 200 µM.

For `CN(C)CCn1c(=O)c2ccc(NCCNCCO)c3c(=O)c4cc(O)ccc4n(c1=O)c23`, the EC50 was greater than 2 µM and the half-inhibitory concentration (IC50) was determined as 0.407 µM.

Take `Cc1ccc(C(=O)O/N=C2/CCCC/C2=C\c2ccccc2)cc1`: the outcome was inactive.

As to `O=C1N/C(=N\N=C\c2ccccc2)C2(CCCCC2)O1`, the EC50 is greater than 200 µM and the IC50 was determined as 97.7 µM.

Consider `CC1=C(C(=O)NCC(C)O)CC(C(=O)NCC(C)O)=C(C)N1` (centres undefined), for which the EC50 is greater than 200 µM and the IC50 was greater than 200 µM.

With `c1ccc(-c2csc3[n+]2CCN3)cc1`, the EC50 is greater than 200 µM and the concentration for half-maximal inhibition (IC50) was found to be 126 µM.

For `O=C(O)c1ccc(CSc2ccc([N+](=O)[O-])cc2)cc1`, the EC50 is greater than 89.1 µM and the half-inhibitory concentration (IC50) is 72.4 µM.

Regarding `CCOc1ccc(NCC(=O)N2CC(=O)Nc3ccccc32)cc1`, the EC50 was greater than 22.4 µM and the half-maximal inhibitory concentration (IC50) is greater than 22.4 µM.

For `CCCCN1C(=O)C2c3[nH]c4ccccc4c3C3CCCCC3C2C1=O` (mixture of isomers), the result was inactive.

On to `CCCCCCCCCCN(CCCCCCCCCC)C(=O)COc1c2cc(C(C)(C)C)cc1Cc1cc(C(C)(C)C)cc(c1OCC(=O)N(CCCCCCCCCC)CCCCCCCCCC)Cc1cc(C(C)(C)C)cc(c1OCC(=O)N(CCCCCCCCCC)CCCCCCCCCC)Cc1cc(C(C)(C)C)cc(c1OCC(=O)N(CCCCCCCCCC)CCCCCCCCCC)C2`, for which the EC50 was greater than 50.1 µM and the half-maximal inhibitory concentration (IC50) turned out to be 3.39 µM.

With `Cn1cccnc1=O`, the EC50 was greater than 200 µM and the IC50 is greater than 200 µM.

As to `C[C@H](Nc1nc(N)c(N=O)c(=O)n1C)C(=O)O`, the EC50 was greater than 200 µM and the IC50 is greater than 200 µM.

Consider `COC(=O)C1=COC(OC2OC(CO)C(O)C(O)C2O)C2C1C=C[C@@]21C=C([C@@H](C)OC(=O)/C=C/c2ccc(O)cc2)C(=O)O1` (some centres undefined), for which the EC50 was greater than 295 µM and the IC50 turned out to be 158 µM.

For `Cc1c(O)c(O)c(C)c(CCN)c1O`, the EC50 was greater than 200 µM and the half-maximal inhibitory concentration (IC50) came to 11 µM.

As for `COCOC1CCCC[C@@]1(OCCOCCO[C@@]1(c2ccccc2)CCCC[C@H]1OCOC)c1ccccc1` (some centres undefined), the EC50 was greater than 5.01 µM and the IC50 is greater than 5.01 µM.

Turning to `CCCCCCCCNC(=S)/N=C/c1c(O)c2ccccc2oc1=O`, the EC50 is greater than 200 µM and the IC50 is 38.9 µM.

`CS(=O)(=O)c1cc([N+](=O)[O-])c(C(N)=O)cc1N(CCCl)CCCl`: the EC50 is greater than 200 µM and the IC50 is greater than 200 µM.

Turning to `CCCCCCCCCCCCC(Br)C(=O)SCCNC(=O)CCNC(=O)[C@@H](O)C(C)(C)COP(=O)(O)OP(=O)(O)OCC1OC(n2cnc3c(N)ncnc32)C(O)C1OP(=O)(O)O` (some centres undefined), the outcome was inactive.

For the compound `O=C(/N=C/c1c(O)c2ccccc2oc1=O)NC1CCCCC1`, the EC50 is greater than 41.7 µM and the 50% inhibitory concentration (IC50) is greater than 41.7 µM.

As to `COc1cc2nc(Sc3c([N+](=O)[O-])ncn3C)[nH]c2cc1OC`, the EC50 is greater than 389 µM and the half-inhibitory concentration (IC50) is 5.5 µM.

Take `O=C(OCCN1CCOCC1)c1cc2ccccc2oc1=O`: the EC50 is greater than 741 µM and the IC50 is greater than 741 µM.

For `C=C1[C@@H]2O[C@@H]3CC(=O)[C@@H](O)[C@]2(C(=O)N1OC)[C@H]3/C=C/C`, the EC50 is greater than 115 µM and the IC50 is greater than 115 µM.

As to `CN(C)c1ccc(C=C2C(=O)OC(C)(C)OC2=O)cc1Br`, the EC50 is greater than 28.2 µM and the IC50 is greater than 28.2 µM.

For the compound `COc1cc2oc(=O)cc(C)c2c(OC)c1OC(C)=O`, the EC50 is greater than 200 µM and the IC50 is greater than 200 µM.

`COc1cc2c(cc1O)C(Cc1ccc(Oc3cc(C[C@H]4c5cc(OC)c(OC)cc5CCN4C)ccc3OC)cc1)N(C)CC2` (some centres undefined): the outcome was inactive.

`CN(C)c1ncnc2c1Cc1ccccc1C(=O)N2C`: the EC50 is 60.3 µM and the IC50 is 407 µM.

`FC(F)(F)c1nc(-c2ccccc2)oc1Sc1nnc(Sc2oc(-c3ccccc3)nc2C(F)(F)F)s1`: the result was inactive.

In the case of `CSc1nc(-c2ccccc2)c(C#N)c(=O)[nH]1`, the outcome was inactive.

For `COC(=O)C1Cc2ccc(O)c(O)c2CN1` (centres undefined), the EC50 was greater than 33.9 µM and the IC50 was determined as 8.91 µM.

Consider `C(=C/C1CCCOC1)/CCc1ccccc1` (centres undefined), for which the result was inactive.

For the compound `CC(=O)C1=C(C)N2C(=NC3=C(CCc4ccccc43)C2c2ccc(F)cc2)S1` (centres undefined), the EC50 is greater than 200 µM and the IC50 was 178 µM.

For the compound `O=NN(O)c1ccccc1.O=NN(O)c1ccccc1.[Cu]`, the outcome was inactive.

In the case of `CC(=O)NS(=O)(=O)c1ccc(NC(=O)c2ccccc2SC(=O)CCCCBr)cc1`, the EC50 was 12.3 µM and the half-maximal inhibitory concentration (IC50) came to 148 µM.

On to `O=c1cnn(C2OC(CO)C(F)C2F)c(=O)[nH]1` (centres undefined), for which the EC50 is greater than 363 µM and the IC50 was greater than 363 µM.

Regarding `CC1(CN2CCCCC2)COC(c2ccccc2)(c2ccccc2)OC1`, the EC50 was greater than 200 µM and the half-inhibitory concentration (IC50) is 29.5 µM.

For the compound `CCc1c(O)c2c([nH]c1=O)SC(C)(C)CC2=NCC(C)C`, the EC50 was greater than 11.5 µM and the concentration for half-maximal inhibition (IC50) is greater than 11.5 µM.

On to `CCCCS/C(=C(/C#N)C(N)=O)c1cc2c([nH]1)CCCC2`, for which the outcome was inactive.

In the case of `CCCC/C=C/Cc1[nH]c2ccccc2c(=O)c1C`, the EC50 was greater than 28.2 µM.

On to `CC(C)N=C(NC#N)NS(=O)(=O)c1cnccc1Nc1ccc(Cl)cc1`, for which the EC50 was greater than 200 µM and the IC50 is greater than 200 µM.

Regarding `CCc1cccc(CC)c1NC(=O)C(=O)Cc1nc2ccccc2o1`, the EC50 is greater than 537 µM and the IC50 is greater than 537 µM.

Consider `COc1cc(C2c3c(oc4ccccc4c3=O)Oc3oc4ccccc4c(=O)c32)cc(OC)c1O`, for which the EC50 is greater than 5.75 µM and the half-inhibitory concentration (IC50) is greater than 5.75 µM.

Regarding `COc1ccc2c(c1)Oc1cc(O)ccc1[C@H]2c1ccccc1C(=O)NC(C)c1ccccc1` (some centres undefined), the EC50 was greater than 15.8 µM and the IC50 is 13.8 µM.

On to `CCN(CC(COc1ccc2c(c1)[n+]([O-])nc(N)[n+]2[O-])OC(C)=O)C(C)=O` (centres undefined), for which the EC50 is greater than 200 µM and the IC50 amounted to 14.8 µM.

For the compound `c1nc2nc3c(cn2n1)CCCC3`, the outcome was inactive.

On to `C=C1CC(CCCl)(c2ccccc2)OC1=O` (centres undefined), for which the EC50 is greater than 41.7 µM and the IC50 was 6.46 µM.

Take `CN1CCOC1(C)c1ccccc1` (centres undefined): the EC50 was greater than 200 µM and the IC50 is greater than 200 µM.

Consider `C[n+]1c(-c2ccc(/C=N\Nc3nnc(S)n3/N=C/c3ccc(-c4cn5ccccc5[n+]4C)cc3)cc2)cn2ccccc21`, for which the EC50 was 66.1 µM and the IC50 stood at 67.6 µM.
